In brackets after ≈: the same amount, converted by molar mass. Where two headings read alike, the source gives them in different places.
Assays:
[1] = tested on: E. coli ATCC 25922; assay: Antibacterial activity in vitro, broth microdilution MIC; assay type: cell-based, Escherichia coli; conditions: 16–24 h at 37 °C, unit inferred
Description: (§1) The in vitro antibacterial activity of the synthesized benzamides 7–12 and 31–37 was evaluated against a panel of eight different bacterial strains. The Gram-positive bacterial strains comprised S. aureus, S. pneumoniae and E. faecalis, and the panel of Gram-negative bacteria consisted of E. coli, K. pneumoniae, A. baumannii and P. aeruginosa.
(§2) The selected bacterial strains were Gram-negative Escherichia coli (ATCC 25922) and Gram-positive Staphylococcus aureus (ATCC 29213) and S. Pneumoniae (ATCC 49619). The Saccharomyces cerevisiae ATCC 7752 strain was tested as a eukaryotic model organism. Synthesized compounds were prepared as 10 mM DMSO solutions and tested in a final concentration range of 100–0.2 µM [39].
(§3) Broth microdilution testing was performed according to CLSI (Clinical Laboratory Standards Institute) guidelines. The MIC (minimal inhibitory concentration) value was defined as the last tested concentration of a compound at which there is no visible growth of bacteria. Inoculums for each microorganism were prepared using the direct colony suspension method, where broth solutions that achieved turbidity equivalent to 0.5 McFarland standards were additionally diluted 100× with cation-adjusted MH media (Becton Dickinson). All test plates were incubated for 16–24 h at 37 °C.

[2] = tested on: E. coli efflux del.; assay: microbe, parasite or virus in culture; assay type: cell-based, Escherichia coli; conditions: broth microdilution, 16–24 h at 37 °C; unit inferred
Description: as §1, §2, §3

[3] = tested on: HCT 116 (colorectal carcinoma); assay: Antiproliferative activity in vitro, MTT assay, 72 h; assay type: cell-based; conditions: Homo sapiens, 72 h incubation, '-' with footnote a = did not show biological activity due to precipitation
Description: (§4) The experiments were carried out on four human cell lines which are derived from three cancer types: H460 (lung carcinoma), HCT 116 (colorectal carcinoma), MCF-7 (human breast cancer) and the non-cancerous cell line HEK 293 (human embryonic kidney).
(§5) The results are compared with the known antiproliferative agents doxorubicin and etoposide. […] Therefore, it is not clear whether the observed antiproliferative activity is due to the biological activity of the compounds or to precipitation.
(§6) The experiments were performed on four human cell lines, including HCT 116 (colon carcinoma), H 460 (lung carcinoma), MCF-7 (breast carcinoma) and HEK 293 (human embryonic kidney cells), in line with previously published experimental procedures. Briefly, the cells were grown in DMEM medium with the addition of 10% fetal bovine serum (FBS), 2 mM of L-glutamine, 100 U/mL of penicillin and 100 µg/mL of streptomycin and cultured as monolayers at 37 °C in a humidified atmosphere with 5% CO2. Cells were seeded at 2 × 10^3 cells/well in standard 96-well microtiter plates and left to attach for 24 h. The next day, a test compound was added in five serial 10-fold dilutions. The rate of cell growth was evaluated after 72 h of incubation with MTT assays. […] Each test was performed in quadruplicate in at least two individual experiments.

[4] = tested on: MCF-7 (human breast cancer); assay: as above; assay type: cell-based; conditions: MCF7, 72 h incubation
Description: as §4, §5, §6

[5] = tested on: H460 (lung carcinoma); assay: as above; assay type: cell-based; conditions: Homo sapiens, NCI-H460, 72 h incubation
Description: as §4, §5, §6

[6] = tested on: HCT 116 cells; assay: Antioxidative activity assay in cells (ROS level, DCFH-DA fluorescence); assay type: cell-based, human; conditions: HCT 116, TBHP 100 µM plus 10 µM compound, 1 h, compared to NAC
From the text: We further selected compounds 9, 10, 32 and 36, showing quite pronounced antioxidant capacity in the DPPH and FRAP assays, in order to test their pro- and antioxidant activity in tumor cells. In order to test the antioxidant activity of the selected compounds in tumor cells (Figure 2), we treated HCT 116 cells with tert-butyl hydroperoxide (TBHP), a substance commonly used for inducing oxidative stress in cells and tissues, alone or in combination with a known antioxidative agent, N-acetyl-L-cysteine (NAC), or the tested compounds. We measured the formation of oxidative stress byproducts using 2′,7′-dichlorodihydrofluorescein diacetate (DCFH-DA).
For the antioxidative activity assay, 2.5 × 10^4 cells were seeded into 96-well microtiter plates and left to attach for 24 h. The next day, cells were washed with PBS and incubated in FBS-free DMEM medium with 25 µM of DCFH-DA fluorescence dye. After 45 min of incubation, the medium was discarded, and the cells were washed with PBS.
After the washing step, the cells were incubated with 100 µM of tert-butyl hydroperoxide (TBHP) alone or in combination with antioxidative agents (50 mM of N-Acetyl-L-cysteine-NAC or 10 µM of the tested compounds) in PBS for 1 h at 37 °C. DCFH-DA fluorescence was recorded on a microplate fluorimeter reader (Tecan) with an excitation beam of 485 nm, while the emitted fluorescence was collected at 535 nm. All tests were presented as the means of two independent measurements carried out in triplicate. One-way ANOVA with Tukey’s post hoc test was used for statistical analysis: *—p < 0.05; **—p < 0.01; ***—p < 0.001.
Figure 2 Antioxidative activity of selected systems. HCT 116 cells were treated with a combination of H2O2 (4 mM) and N-acetyl-L-cysteine (NAC, 10 mM) or the tested compounds (10 mM). Treatment with H2O2 (4 mM) alone was used as a control for ROS induction. The level of reactive oxygen species (ROS) was measured with the fluorescent dye DCFH-DA using a fluorimeter. The data presented here are the results of three independent measurements carried out in triplicate. A one-way ANOVA with Tukey’s post hoc test was used for statistical analysis, *** p < 0.001; ns—not significant.

[7] = tested on: HEK 293 (human embryonic kidney); assay: Antiproliferative activity in vitro, MTT assay, 72 h, non-cancerous cell line; assay type: cell-based; conditions: HEK293, 72 h incubation, '-' with footnote a = did not show biological activity due to precipitation
Description: as §4, §5, §6

[8] = Ferric reducing/antioxidant power (FRAP assay); parameters: FRAP: unit not given here; conditions: for FRAP: Fe2+ equivalents, triplicate
Description: (§7) The synthesized benzazole acrylonitrile derivatives were screened for their antioxidative potency by using in vitro assays, namely DPPH and ABTS as free radical scavenging assays and FRAP as a ferric reducing/antioxidant power assay.
The antioxidant activity of a substance is directly related to its reducing power.
The FRAP method was carried out according to previously described procedures with some modifications to make it compatible with an assay on a 96-well microplate. All results were expressed as Fe^2+ equivalents (Fe^2+ µmol). Ferrous sulphate (FeSO4 × 7H2O) was used to develop a standard curve of 20–2000 µmol/l for the FRAP test.

[9] = tested on: S. aureus ATCC 29213; assay: Antibacterial activity in vitro, broth microdilution MIC; assay type: cell-based, Staphylococcus aureus; conditions: broth microdilution, 16–24 h at 37 °C; unit inferred
Description: as §1, §2, §3

[10] = tested on: A. baumannii ATCC 17978; assay: as above; assay type: cell-based; conditions: 16–24 h at 37 °C, unit inferred
Description: as §1, §2, §3

[11] = tested on: E. faecalis ATCC 29212; assay: as above; assay type: cell-based; conditions: for MIC E. faecalis ATCC 29212: broth microdilution, 16–24 h at 37 °C, unit inferred; for Selectivity of antibacterial activity, in words: against the Gram-positive strain E. faecalis
Description: as §1, §2, §3

[12] = tested on: P. aeruginosa ATCC 27853; assay: as above; assay type: cell-based; conditions: 16–24 h at 37 °C, unit inferred
Description: as §1, §2, §3

[13] = tested on: H460, HCT 116, MCF-7, HEK 293; assay: Antiproliferative activity in vitro, MTT assay, range over the tested cell lines; assay type: cell-based, human; conditions: read-out: IC50 range against the tested cell lines
Description: as §4, §5, §6

[14] = DPPH free radical scavenging assay; conditions: compared to the standard BHT
From the text: as §7
The well-known antioxidant butylated hydroxytoluene (BHT) was used as a standard for comparing activity during testing. The DPPH assay is a standard commonly used test for the in vitro assessment of the antioxidant capacity of novel compounds by using their ability to scavenge the stable radical 1,1-diphenyl-picrylhydrazyl. […] Another test used to evaluate the antioxidative capacity of novel compounds was the ABTS test, by which their activity was evaluated by scavenging the stable radical 3-ethylbenzthiazoline-6-sulphonic acid.
Determination of the reducing activity of the stable radical 1,1-diphenyl-picrylhydrazyl (DPPH):
The reducing activity of the investigated systems was measured by the DPPH method according to previously described procedures with modifications to ensure their use on a 96-well microplate. Briefly, equal volumes of various concentrations of the tested molecules (dissolved in DMSO) were added to a solution of DPPH (final concentration of 50 µM in absolute ethanol). Ethanol and DMSO were used as control solutions in line with earlier reports. The radical scavenging activity was calculated using the following formula:[(A517 control − A517 compound)/A517 control] × 100.
The IC50 values were calculated from dose–response curves using nonlinear regression analysis with the GraphPad Prism 8 Ink. program. All measurements were carried out in triplicate.

[15] = Solubility in water, seen as precipitation during incubation; assay type: physicochemical; conditions: precipitation observed during the incubation period
From the text: Therefore, it is not clear whether the observed antiproliferative activity is due to the biological activity of the compounds or to precipitation.

| SMILES | MIC E. coli ATCC 25922 [1] [µM] | MIC E. coli efflux del. [2] [µM] | IC50 [3] [µM] | IC50 [4] [µM] | IC50 [5] [µM] | Level of ROS in cells under induced oxidative stress [6] | IC50 [7] [µM] | FRAP [8] | MIC S. aureus ATCC 29213 [9] [µM] | MIC A. baumannii ATCC 17978 [10] [µM] | MIC E. faecalis ATCC 29212 [11] [µM] | MIC P. aeruginosa ATCC 27853 [12] [µM] | IC50 ([13]; Homo sapiens) [µM] | IC50 [13] [µM] | DPPH free radical scavenging activity, in words [14] | melting point [°C] | FRAP ferric reducing/antioxidant power, in words ([8]; compared to the standard BHT) | Selectivity of antibacterial activity, in words [11] | Solubility in water [15] |
| --- | --- | --- | --- | --- | --- | --- | --- | --- | --- | --- | --- | --- | --- | --- | --- | --- | --- | --- | --- |
| COc1ccc(C(=O)Nc2nc3cc(C#N)ccc3n2CC(C)C)c(O)c1 [Compound 10, N-(5-cyano-1-isobutyl-1H-benzo[d]imidazol-2-yl)-2-hydroxy-4-methoxybenzamide] | > 64 | > 64 | 3.9 ± 0.4 | 2.2 ± 0.9 | 4.4 ± 0.4 | did not effectively scavenge ROS | 4.4 ± 0.3 | 123.61 ± 2.52 | > 64 | > 64 | > 64 | > 64 | 2.2 to 4.4 | 1.2 to 5.3 | – | – | – | – | – |
| O=C(Nc1nc2ccccc2[nH]1)c1cc(O)c(O)c(O)c1 [Compound 32, N-(1H-benzo[d]imidazol-2-yl)-3,4,5-trihydroxybenzamide] | > 64 | > 64 | > 100 | 39.8 ± 1.4 | > 100 | reducing the level of ROS in the cells | 66 ± 1.7 | 3245.79 ± 16.38 | > 64 | > 64 | > 64 | > 64 | – | – | significantly improved | 230 to 234 | excellent in vitro antioxidant activity | – | – |
| COc1ccc(C(=O)Nc2nc3ccccc3[nH]2)c(O)c1 [Compound 7, N-(1H-benzo[d]imidazol-2-yl)-2-hydroxy-4-methoxybenzamide] | > 64 | > 64 | 26.4 ± 4.8 | 36.3 ± 1.8 | > 100 | – | – | 387.28 ± 7.56 | > 64 | > 64 | 16 (≈ 4.53 µg/mL) | > 64 | – | – | – | – | – | selective antibacterial activity | low solubility in water |
| COc1ccc(C(=O)Nc2nc3cc(C#N)ccc3n2C)c(O)c1 [Compound 12, N-(5-cyano-1-methyl-1H-benzo[d]imidazol-2-yl)-2-hydroxy-4-methoxybenzamide] | > 64 | > 64 | – | 3.1 | > 100 | – | – | 592.86 ± 13.86 | > 64 | > 64 | 32 (≈ 10.3 µg/mL) | > 64 | – | – | – | – | – | selective antibacterial activity | low solubility in water |
| Cn1c(NC(=O)c2ccccc2O)nc2cc(C#N)ccc21 [Compound 11, N-(5-cyano-1-methyl-1H-benzo[d]imidazol-2-yl)-2-hydroxybenzamide] | > 64 | > 64 | 3.7 ± 0.04 | 1.2 ± 0.3 | > 100 | – | 5.3 ± 0.6 | 422.55 ± 8.82 | > 64 | > 64 | 32 (≈ 9.35 µg/mL) | > 64 | 1.2 to 5.3 | – | – | – | – | selective antibacterial activity | – |
